Here are results for 3 compounds from ChEMBL document CHEMBL1152560, “Substituted 2-arylbenzothiazoles as kinase inhibitors: hit-to-lead optimization” (Bioorg Med Chem, 2009).

The target in assay [1] is Macrophage colony-stimulating factor 1 receptor (Homo sapiens) (UniProt P07333). The experiment in a line: Residual activity of CSF1R at 0.1 uM by microplate scintillation counting.
The target in assay [2] is Tyrosine-protein kinase Fgr (Homo sapiens) (UniProt P09769). Briefly: Residual activity of FGR at 0.1 uM by microplate scintillation counting.
Assay [3] has as its target Misshapen-like kinase 1 (Homo sapiens) (UniProt Q8N4C8). The experiment in a line: Residual activity of MINK1 at 1 uM by microplate scintillation counting.
Assay [4] has as its target T1, Serine/threonine-protein kinase Nek11 (Homo sapiens) (UniProt Q8NG66).
T1 sequence (whole entry): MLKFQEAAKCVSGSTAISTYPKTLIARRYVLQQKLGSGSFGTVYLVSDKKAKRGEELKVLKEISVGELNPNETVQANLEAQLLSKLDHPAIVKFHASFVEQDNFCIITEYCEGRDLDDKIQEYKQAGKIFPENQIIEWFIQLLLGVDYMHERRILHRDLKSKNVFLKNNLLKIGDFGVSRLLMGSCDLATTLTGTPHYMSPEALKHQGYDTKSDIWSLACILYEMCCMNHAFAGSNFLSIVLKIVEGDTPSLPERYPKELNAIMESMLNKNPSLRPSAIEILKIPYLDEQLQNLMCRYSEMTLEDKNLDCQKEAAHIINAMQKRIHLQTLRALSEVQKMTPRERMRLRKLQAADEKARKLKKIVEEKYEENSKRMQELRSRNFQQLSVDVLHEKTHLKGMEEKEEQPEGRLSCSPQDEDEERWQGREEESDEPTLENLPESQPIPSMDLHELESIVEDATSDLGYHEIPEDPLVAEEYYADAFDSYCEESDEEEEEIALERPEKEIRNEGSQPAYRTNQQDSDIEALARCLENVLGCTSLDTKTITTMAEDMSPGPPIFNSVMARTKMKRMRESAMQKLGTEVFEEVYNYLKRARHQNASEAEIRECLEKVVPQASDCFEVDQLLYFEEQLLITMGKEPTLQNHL
The experiment in a line: Residual activity of NEK11 at 1 uM by microplate scintillation counting.

In assay [5] the target is Ribosomal protein S6 kinase beta-2 (Homo sapiens) (UniProt Q9UBS0). Briefly: Residual activity of S6Kbeta at 1 uM by microplate scintillation counting.
For assay [6], the target named is Activated CDC42 kinase 1 (Homo sapiens) (UniProt Q07912). The experiment in a line: Residual activity of ACK1 at 10 uM by microplate scintillation counting.
For assay [7], the target named is Tyrosine-protein kinase HCK (Homo sapiens) (UniProt P08631). Briefly: Residual activity of HCK at 10 uM by microplate scintillation counting.
The target of assay [8] is LIM domain kinase 1 (Homo sapiens) (UniProt P53667). The experiment in a line: Residual activity of LIMK1 at 10 uM by microplate scintillation counting.
For assay [9], the target named is Tyrosine-protein kinase ABL1 (Homo sapiens) (UniProt P00519). The experiment in a line: Residual activity of wild type ABL1 at 1 uM by microplate scintillation counting.
The next assay has as its target Aurora kinase B (Homo sapiens, UniProt Q96GD4). The experiment in a line: Residual activity of Aurora-B at 10 uM by microplate scintillation counting.
In assay [10] the target is T2, Aurora kinase A (Homo sapiens) (UniProt O14965).
T2 sequence (whole entry): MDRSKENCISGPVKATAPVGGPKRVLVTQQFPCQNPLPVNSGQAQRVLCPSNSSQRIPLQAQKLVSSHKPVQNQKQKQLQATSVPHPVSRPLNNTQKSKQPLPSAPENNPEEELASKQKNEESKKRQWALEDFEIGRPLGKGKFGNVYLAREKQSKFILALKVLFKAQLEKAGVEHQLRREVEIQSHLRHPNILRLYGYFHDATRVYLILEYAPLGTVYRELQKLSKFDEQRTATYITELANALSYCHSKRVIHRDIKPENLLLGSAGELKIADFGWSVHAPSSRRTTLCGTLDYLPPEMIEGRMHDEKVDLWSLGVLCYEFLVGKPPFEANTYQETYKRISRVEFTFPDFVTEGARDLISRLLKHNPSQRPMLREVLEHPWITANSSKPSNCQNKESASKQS
The experiment in a line: Residual activity of Aurora-A at 0.1 uM by microplate scintillation counting.

Assay [11] deals with CDK1/Cyclin A (Homo sapiens) (UniProt P06493+P20248). Briefly: Residual activity of CDK1/Cyclin A at 0.1 uM by microplate scintillation counting. Format: protein-complex assay.
Assay [12] has as its target Cyclin-dependent kinase 1/cyclin B1 (Homo sapiens) (UniProt P06493+P14635). The experiment in a line: Residual activity of CDK1/CyclinB1 at 0.1 uM by microplate scintillation counting. In kind it is protein-complex assay.
Assay [13] concerns the target Serine/threonine-protein kinase PAK 5 (Homo sapiens) (UniProt Q9P286). The experiment in a line: Residual activity of PAK7 at 0.1 uM by microplate scintillation counting.
The subject of assay [14] is RAF proto-oncogene serine/threonine-protein kinase (Homo sapiens), P04049 [Y340D,Y341D]. The experiment in a line: Residual activity of RAF1 Y340D/Y341D mutant at 10 uM by microplate scintillation counting.
For assay [15], the target named is Proto-oncogene tyrosine-protein kinase ROS (Homo sapiens) (UniProt P08922). Briefly: Residual activity of ROS at 0.1 uM by microplate scintillation counting.
Assay [16] addresses T3, Dual specificity protein kinase TTK (Homo sapiens) (UniProt P33981).
T3 sequence (whole entry): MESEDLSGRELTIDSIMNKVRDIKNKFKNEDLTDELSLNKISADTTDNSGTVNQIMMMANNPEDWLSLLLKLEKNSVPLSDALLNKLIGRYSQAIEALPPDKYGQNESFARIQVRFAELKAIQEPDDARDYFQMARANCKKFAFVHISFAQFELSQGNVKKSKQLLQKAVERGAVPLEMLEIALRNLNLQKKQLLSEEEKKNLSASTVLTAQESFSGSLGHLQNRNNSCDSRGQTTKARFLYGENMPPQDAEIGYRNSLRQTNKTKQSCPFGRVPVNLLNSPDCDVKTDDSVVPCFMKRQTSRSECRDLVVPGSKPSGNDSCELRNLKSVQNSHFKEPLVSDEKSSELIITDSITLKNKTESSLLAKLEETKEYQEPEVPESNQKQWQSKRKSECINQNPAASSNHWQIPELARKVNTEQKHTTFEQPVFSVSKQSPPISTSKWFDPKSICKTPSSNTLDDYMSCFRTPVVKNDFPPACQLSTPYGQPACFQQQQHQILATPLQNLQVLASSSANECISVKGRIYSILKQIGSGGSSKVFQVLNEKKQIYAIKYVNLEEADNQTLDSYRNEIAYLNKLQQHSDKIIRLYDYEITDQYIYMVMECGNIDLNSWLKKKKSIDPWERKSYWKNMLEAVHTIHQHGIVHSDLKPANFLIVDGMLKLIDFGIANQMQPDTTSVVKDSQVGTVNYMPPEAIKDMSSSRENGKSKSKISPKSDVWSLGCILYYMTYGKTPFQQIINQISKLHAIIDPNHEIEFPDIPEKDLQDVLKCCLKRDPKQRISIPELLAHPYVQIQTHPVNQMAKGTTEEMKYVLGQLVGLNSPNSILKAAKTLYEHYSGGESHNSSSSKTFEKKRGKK
The experiment in a line: Residual activity of TTK at 0.1 uM by microplate scintillation counting.

Chain of Serine/threonine-protein kinase PAK 5 (Homo sapiens) (Q9P286 whole entry, looked up): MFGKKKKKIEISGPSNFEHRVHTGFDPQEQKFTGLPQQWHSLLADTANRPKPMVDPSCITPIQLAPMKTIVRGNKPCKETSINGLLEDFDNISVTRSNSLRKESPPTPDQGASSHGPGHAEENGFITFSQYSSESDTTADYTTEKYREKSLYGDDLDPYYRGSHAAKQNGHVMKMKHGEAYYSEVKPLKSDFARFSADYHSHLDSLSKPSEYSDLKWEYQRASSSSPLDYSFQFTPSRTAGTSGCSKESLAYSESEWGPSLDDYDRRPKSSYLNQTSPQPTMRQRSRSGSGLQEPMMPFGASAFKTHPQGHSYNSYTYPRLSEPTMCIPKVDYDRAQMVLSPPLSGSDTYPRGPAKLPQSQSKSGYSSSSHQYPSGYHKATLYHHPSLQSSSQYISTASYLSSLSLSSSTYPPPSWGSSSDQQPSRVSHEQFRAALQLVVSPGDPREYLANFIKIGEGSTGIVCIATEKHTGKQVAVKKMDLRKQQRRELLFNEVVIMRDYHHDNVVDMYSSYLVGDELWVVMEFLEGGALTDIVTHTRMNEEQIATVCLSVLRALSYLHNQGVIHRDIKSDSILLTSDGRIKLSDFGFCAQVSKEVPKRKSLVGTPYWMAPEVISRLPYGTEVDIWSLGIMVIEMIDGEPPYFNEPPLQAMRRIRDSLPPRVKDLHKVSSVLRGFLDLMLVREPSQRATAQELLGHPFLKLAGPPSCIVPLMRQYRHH
Chain of Tyrosine-protein kinase HCK (Homo sapiens) (P08631 2-526 limits assumed): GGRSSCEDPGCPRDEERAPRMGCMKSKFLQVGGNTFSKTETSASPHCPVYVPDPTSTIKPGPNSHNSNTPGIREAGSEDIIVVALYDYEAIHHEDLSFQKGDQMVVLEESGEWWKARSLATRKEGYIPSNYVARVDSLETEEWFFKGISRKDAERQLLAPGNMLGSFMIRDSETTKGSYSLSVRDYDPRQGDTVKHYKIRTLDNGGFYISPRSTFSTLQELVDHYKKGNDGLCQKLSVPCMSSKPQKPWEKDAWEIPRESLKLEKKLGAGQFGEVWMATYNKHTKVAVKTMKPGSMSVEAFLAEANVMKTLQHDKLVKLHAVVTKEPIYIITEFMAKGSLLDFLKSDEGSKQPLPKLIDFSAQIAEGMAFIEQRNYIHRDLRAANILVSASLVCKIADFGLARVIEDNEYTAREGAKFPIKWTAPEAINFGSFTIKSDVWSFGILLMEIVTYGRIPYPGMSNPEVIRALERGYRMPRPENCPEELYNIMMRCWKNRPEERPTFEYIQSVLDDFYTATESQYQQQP
Chain of Macrophage colony-stimulating factor 1 receptor (Homo sapiens) (P07333 whole entry): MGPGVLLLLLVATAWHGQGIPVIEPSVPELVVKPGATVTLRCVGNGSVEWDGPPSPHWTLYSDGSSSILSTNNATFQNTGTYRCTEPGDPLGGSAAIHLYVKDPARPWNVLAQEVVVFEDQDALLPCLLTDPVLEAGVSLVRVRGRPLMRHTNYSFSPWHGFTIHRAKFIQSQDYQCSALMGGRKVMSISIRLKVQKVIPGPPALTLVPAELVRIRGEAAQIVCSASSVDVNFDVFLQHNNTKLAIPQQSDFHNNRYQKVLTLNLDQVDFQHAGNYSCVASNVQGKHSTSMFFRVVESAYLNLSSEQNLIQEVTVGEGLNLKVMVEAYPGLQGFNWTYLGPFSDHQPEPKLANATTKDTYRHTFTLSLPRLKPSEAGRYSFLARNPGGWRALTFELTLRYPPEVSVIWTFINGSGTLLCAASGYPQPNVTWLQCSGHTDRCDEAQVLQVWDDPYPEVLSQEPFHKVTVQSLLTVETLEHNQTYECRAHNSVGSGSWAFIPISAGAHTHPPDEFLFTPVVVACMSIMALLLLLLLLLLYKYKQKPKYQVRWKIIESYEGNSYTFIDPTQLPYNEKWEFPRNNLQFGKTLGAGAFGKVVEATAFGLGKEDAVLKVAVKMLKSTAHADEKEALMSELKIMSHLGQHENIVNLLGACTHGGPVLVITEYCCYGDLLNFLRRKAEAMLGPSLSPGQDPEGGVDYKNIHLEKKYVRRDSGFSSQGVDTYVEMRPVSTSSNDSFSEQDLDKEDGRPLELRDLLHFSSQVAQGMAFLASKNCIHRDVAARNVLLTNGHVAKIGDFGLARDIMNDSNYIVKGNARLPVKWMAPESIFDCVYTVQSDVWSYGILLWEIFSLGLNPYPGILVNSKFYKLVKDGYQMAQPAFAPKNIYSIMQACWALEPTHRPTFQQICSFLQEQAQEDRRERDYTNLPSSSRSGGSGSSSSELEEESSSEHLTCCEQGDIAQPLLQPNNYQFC
Chain of Misshapen-like kinase 1 (Homo sapiens) (Q8N4C8 whole entry, looked up): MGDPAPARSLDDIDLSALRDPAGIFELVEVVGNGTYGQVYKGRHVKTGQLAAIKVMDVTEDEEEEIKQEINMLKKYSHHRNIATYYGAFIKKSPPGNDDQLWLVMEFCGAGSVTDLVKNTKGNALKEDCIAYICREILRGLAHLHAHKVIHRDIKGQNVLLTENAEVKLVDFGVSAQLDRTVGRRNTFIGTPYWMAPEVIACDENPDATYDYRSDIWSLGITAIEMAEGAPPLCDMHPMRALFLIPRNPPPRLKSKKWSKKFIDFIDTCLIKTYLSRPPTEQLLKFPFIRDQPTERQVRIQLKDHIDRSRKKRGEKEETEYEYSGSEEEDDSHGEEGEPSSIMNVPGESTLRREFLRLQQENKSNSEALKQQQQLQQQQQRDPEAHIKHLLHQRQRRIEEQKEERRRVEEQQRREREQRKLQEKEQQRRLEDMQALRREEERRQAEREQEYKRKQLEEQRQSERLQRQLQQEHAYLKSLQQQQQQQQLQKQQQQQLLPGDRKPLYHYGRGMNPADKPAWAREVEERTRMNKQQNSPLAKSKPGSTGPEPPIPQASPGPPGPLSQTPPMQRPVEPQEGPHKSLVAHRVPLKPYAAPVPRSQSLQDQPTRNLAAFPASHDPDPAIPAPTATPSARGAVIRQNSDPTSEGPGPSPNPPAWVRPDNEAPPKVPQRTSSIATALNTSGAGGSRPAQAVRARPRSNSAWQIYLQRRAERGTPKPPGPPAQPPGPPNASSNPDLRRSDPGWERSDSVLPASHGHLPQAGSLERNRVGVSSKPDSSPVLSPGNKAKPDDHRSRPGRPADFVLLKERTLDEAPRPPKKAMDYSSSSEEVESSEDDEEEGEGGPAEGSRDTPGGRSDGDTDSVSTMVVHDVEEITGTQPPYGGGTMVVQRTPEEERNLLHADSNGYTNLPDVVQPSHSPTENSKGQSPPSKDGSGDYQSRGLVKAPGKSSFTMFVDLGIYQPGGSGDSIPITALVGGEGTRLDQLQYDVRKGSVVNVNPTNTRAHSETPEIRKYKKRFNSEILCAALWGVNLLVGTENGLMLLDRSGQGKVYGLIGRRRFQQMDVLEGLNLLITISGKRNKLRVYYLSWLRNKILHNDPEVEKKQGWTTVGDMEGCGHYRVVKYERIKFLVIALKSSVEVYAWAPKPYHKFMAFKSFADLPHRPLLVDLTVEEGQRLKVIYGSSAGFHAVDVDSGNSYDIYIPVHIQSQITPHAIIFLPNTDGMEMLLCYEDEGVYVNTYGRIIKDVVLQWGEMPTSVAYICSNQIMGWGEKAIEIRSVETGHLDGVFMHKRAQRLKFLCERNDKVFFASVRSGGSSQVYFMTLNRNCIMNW
Chain of LIM domain kinase 1 (Homo sapiens) (P53667 whole entry, looked up, the tested form may be a part): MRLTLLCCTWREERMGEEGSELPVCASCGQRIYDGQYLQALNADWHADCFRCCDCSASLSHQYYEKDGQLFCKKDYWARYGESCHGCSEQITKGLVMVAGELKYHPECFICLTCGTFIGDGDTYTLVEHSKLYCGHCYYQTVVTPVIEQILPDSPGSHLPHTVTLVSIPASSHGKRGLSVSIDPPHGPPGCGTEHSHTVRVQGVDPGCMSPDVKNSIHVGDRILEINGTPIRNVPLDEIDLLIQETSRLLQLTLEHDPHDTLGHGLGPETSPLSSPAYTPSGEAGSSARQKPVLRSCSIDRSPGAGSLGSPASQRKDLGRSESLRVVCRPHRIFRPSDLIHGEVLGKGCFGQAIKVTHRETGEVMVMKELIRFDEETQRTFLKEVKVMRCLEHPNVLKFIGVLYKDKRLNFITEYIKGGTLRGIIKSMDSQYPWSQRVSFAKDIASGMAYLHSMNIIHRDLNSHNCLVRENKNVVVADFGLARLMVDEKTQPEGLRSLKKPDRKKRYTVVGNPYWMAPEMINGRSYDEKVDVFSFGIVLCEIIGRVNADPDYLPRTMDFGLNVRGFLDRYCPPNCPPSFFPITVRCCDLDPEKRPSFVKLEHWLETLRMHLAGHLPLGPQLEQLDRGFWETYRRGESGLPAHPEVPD
Chain of Aurora kinase B (Q96GD4 whole entry): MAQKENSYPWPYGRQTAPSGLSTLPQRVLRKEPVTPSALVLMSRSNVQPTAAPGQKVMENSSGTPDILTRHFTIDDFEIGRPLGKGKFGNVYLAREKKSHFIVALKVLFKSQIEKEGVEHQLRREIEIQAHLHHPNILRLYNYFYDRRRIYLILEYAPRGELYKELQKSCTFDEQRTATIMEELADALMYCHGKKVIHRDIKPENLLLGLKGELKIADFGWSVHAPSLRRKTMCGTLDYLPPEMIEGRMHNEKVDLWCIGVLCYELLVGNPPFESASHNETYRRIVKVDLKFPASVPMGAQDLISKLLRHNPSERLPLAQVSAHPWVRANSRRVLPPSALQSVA
Chain of Ribosomal protein S6 kinase beta-2 (Homo sapiens) (Q9UBS0 whole entry): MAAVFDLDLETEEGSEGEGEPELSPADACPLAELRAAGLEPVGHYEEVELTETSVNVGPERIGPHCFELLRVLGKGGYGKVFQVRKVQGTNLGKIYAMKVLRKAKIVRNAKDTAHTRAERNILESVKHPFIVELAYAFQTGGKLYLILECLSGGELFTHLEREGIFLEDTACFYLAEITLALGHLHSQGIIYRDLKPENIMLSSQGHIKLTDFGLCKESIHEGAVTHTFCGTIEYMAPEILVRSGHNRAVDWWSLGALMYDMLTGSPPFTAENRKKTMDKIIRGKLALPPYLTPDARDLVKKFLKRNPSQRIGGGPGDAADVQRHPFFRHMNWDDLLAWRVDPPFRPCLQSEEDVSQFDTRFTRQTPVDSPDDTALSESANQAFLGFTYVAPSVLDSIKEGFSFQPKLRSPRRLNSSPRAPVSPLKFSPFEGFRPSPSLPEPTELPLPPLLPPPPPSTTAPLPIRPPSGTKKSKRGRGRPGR

As to `COc1cc2c(Oc3ccc(-c4nc5ccccc5s4)cc3)ncnc2cc1OCCCN1CCN(C)CC1`, the residual activity in assay [1] amounted to 93%; in assay [2] it was 103%; in assay [3], 85%; in [4], 104%; in [5] it was 56%; in [6] it was 35%. In addition, the residual activity in assay [7] is 155%; in assay [8], 89%; in [9] it was 99%; on Aurora kinase B, 5%; in assay [10], 52%; in [11], 94%. Also, the residual activity was 90% in assay [12]; 80% in assay [13]; 74% in assay [14]; 91% in assay [15]; 89% in [16].
Take `COc1cc2c(Oc3ccc(-c4nc5ccccc5s4)cc3)ncnc2cc1OCCCN1CCCC1`: the residual activity in assay [1] came to 120%; in [2], 96%; in assay [3], 86%; in assay [4], 91%; in assay [5] it was 54%; in assay [6] it was 31%. Moreover, the residual activity in [7] turned out to be 187%; in assay [8], 96%; in [9], 100%; at Aurora kinase B it was 3%; in [10], 68%; in assay [11], 109%. Further, the residual activity was 84% in assay [12]; 92% in assay [13]; 61% in assay [14]; 84% in assay [15]; 99% in assay [16].
Consider `COc1cc2c(Oc3ccc(-c4nc5ccccc5s4)cc3F)ncnc2cc1OCCCN1CCN(C)CC1`, for which the residual activity stood at 88% in assay [1]; 103% in assay [2]; 73% in [3]; 93% in assay [4]; 41% in [5]; 40% in [6]. The residual activity came out at 78% in [7]; 95% in assay [8]; 110% in assay [9]; 3% on Aurora kinase B; 65% in assay [10]; 99% in assay [11]. Besides, the residual activity in assay [12] amounted to 87%; in [13], 84%; in assay [14], 108%; in assay [15], 98%; in assay [16], 82%.
